Experimental data taken from US6878751B1, “Administration of resveratrol to treat inflammatory respiratory disorders” (Imperial College of Science Technology and Medicine, priority 2000, dated 2005).

Legend:
[1] = system: NF-κB dependent transcription; experiment: NF-κB luciferase reporter in stably transfected A549 cells; assay type: cell-based, human
Description: (§1) The expression of inflammatory genes was then evaluated in cells transformed with luciferase reporter genes containing sites for transcription factors (Tf, Tfs). The A549 cells were stably transfected by routine methods with luciferase reporters containing the transcription factors NF-κB, TRE (AP-1, TPA responsive element) and CRE (cAMP responsive element). Luciferase activity of cell lysates resuspended in […] cell lysis buffer mixed (40 mml resuspended lysate: 40 mml assay reagent) was measured using the Luciferase Assay System (Promega), with emitted light measured by a Turner DesignsTD-20/20 luminometer (Steptech Instruments Ltd., Stevenage, U.K.)

[2] = system: CRE dependent transcription; experiment: CRE luciferase reporter in stably transfected A549 cells; assay type: cell-based, human
Description: as §1

For `C[C@@H]1C[C@H]2[C@@H]3CCC4=CC(=O)C=C[C@]4(C)[C@@]3(F)[C@@H](O)C[C@]2(C)[C@@]1(O)C(=O)CO` [Dexamethasone, dexamethasone, reference compound], the “extent of inhibition of NF-κB dependent transcription” value [1] was 41%, the EC50 ([1]; Homo sapiens, read-out: EC50 for inhibition of NF-κB dependent transcription) was 16 ± 12 µM and the “extent of inhibition of CRE dependent transcription” value [2] was 62%. For the same compound, the EC50 ([2]; Homo sapiens, read-out: EC50 for inhibition of CRE dependent transcription) was 3.4 ± 3 µM.
